According to patent US12577231B2, “Androgen receptor PROTACS” (GlaxoSmithKline Intellectual Property Development Limited, priority 2023, dated 2026):

molecular target: T1, Androgen Receptor dual T878A/L702H mutant protein (Homo sapiens, UniProt P10275, L702H/T878A); test: Dual Mutant (T878A/L702H) Androgen Receptor Degradation Assay (HTRF, MDA-PCa-2b cells); type: cell-based; conditions: 18 h, 18 h incubation, read-out: mean asymptote max
T1 construct: host or cells: MDA-PCa-2b
T1 sequence (P10275 1-920 L702H/T878A): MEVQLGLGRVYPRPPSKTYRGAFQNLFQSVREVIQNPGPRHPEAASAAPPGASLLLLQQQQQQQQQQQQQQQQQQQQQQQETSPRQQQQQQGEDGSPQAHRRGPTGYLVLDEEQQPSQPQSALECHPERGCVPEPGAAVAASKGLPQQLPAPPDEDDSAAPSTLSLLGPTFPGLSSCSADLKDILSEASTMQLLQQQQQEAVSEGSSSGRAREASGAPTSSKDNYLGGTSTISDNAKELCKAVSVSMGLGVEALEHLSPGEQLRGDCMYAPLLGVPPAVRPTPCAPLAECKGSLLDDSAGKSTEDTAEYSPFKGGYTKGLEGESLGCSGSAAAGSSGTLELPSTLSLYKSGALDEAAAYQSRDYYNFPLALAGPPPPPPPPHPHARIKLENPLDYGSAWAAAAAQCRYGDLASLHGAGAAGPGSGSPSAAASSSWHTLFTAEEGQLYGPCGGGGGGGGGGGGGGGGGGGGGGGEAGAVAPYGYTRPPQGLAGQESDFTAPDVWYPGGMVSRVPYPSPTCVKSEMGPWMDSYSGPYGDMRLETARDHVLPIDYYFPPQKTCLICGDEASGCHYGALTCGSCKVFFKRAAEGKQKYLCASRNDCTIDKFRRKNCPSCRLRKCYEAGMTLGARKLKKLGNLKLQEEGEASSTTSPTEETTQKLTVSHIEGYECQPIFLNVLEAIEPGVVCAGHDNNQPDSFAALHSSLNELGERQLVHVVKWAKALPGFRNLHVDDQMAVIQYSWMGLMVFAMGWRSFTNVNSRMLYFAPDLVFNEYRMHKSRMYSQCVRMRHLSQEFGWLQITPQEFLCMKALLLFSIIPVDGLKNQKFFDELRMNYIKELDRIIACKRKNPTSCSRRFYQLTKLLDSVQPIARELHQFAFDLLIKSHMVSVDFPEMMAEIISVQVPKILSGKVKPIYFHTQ
Method: Degradation of Androgen Receptor dual T878A/L702H mutant protein in human MDA-PCa-2b (ATCC) cells treated with PROTACs was quantified using the HTRF Human Androgen Receptor Detection Kit (PerkinElmer) in 384 well assay plate format. 10 mM DMSO (Sigma-Aldrich) stock solutions of PROTACs were prepared and diluted across an 11 concentration, 3-fold increment range, and 25 nL dispensed into a white opaque bottomed 384 well assay plate (Thermofisher) using an acoustic ECHO dispenser (Labcyte). Cells were cultured in growth medium (BRFF—HPC-1 (Athena ES) supplemented with 20% FBS (Gibco), penicillin 50U/mL and streptomycin 50 μg/mL (Gibco, #15140-122)) in collagen I or poly-D-lysine coated T175 flasks (Corning, #356487 or #356539, respectively). For the assay, cells were harvested from the flask, centrifuged at 200 g for 5 min and then resuspended in the growth medium. 25 μl of cell suspension containing 10,000 cells was dispensed into each well of the assay plate containing the test compounds, which was then incubated for 18 h at 37° C./5% CO2. Control wells were included on each assay plate, with assay medium without cells being the no AR remaining 100% effect control, and cells treated with DMSO vehicle only, without PROTAC, the 0% effect control. After 18 h incubation 8 μl of supplemented lysis buffer from HTRF kit was added to each well and the plate shaken at 500 rpm for 1 h at room temperature. 8 μl of antibody mix in Detection buffer from HTRF kit was added to each well and the plate was incubated for 2 h in dark at mom temperature. The fluorescence was measured at both 620 nm and 665 nm using an excitation wavelength of 337 nm with a PHERAstar microplate reader (BMG Labtech) and the % AR protein remaining in each well was calculated by normalising the HTRF ratio (665 nm signal/620 nm signal) value to the control wells mentioned above. Parameters corresponding to the potency and efficacy estimates of the PROTACs were obtained from these normalised values using curve fitting software (IDBS ActivityBase). These included the DC50 and the Dmax estimates. Two versions of the DC50, called relative DC50 and absolute DC50, were typically generated. These are the inflection point of a fitted 4 parameter sigmoidal response curve and the interpolated concentration of PROTAC corresponding to 50% of the protein being degraded, respectively. The Dmax parameter was the maximum experimentally observed degradation and the asymptote max parameter the fitted response curve asymptote maximum.

Dmax, ≥ 50%:
CC1(C)[C@H](NC(=O)c2ccc(N3CCC(CN4CCC(n5ncc6c(N7CCC(=O)NC7=O)cccc65)CC4)CC3)c(F)c2)C(C)(C)[C@H]1Oc1ccc(C#N)c(Cl)c1 [Example 1, N-((1r,3r)-3-(3-Chloro-4-cyanophenoxy)-2,2,4,4-tetramethylcyclobutyl)-4-(4-((4-(4-(2,4-dioxotetrahydropyrimidin-1(2H)-yl)-1H-indazol-1-yl)piperidin-1-yl)methyl)piperidin-1-yl)-3-fluorobenzamide]
Cc1c(O[C@H]2C(C)(C)[C@H](NC(=O)c3ccc(N4CCC(CN5CCC(n6ncc7c(N8CCC(=O)NC8=O)cccc76)CC5)CC4)c(F)c3)C2(C)C)ccc(C#N)c1Cl [Example 2, N-((1r,3r)-3-(3-Chloro-4-cyano-2-methylphenoxy)-2,2,4,4-tetramethylcyclobutyl)-4-(4-((4-(4-(2,4-dioxotetrahydropyrimidin-1(2H)-yl)-1H-indazol-1-yl)piperidin-1-yl)methyl)piperidin-1-yl)-3-fluorobenzamide]
CCOc1cc(O[C@H]2C(C)(C)[C@H](NC(=O)c3ccc(N4CCC(CN5CCC(n6ncc7c(N8CCC(=O)NC8=O)cccc76)CC5)CC4)c(F)c3)C2(C)C)ccc1C#N [Example 4, N-((1r,3r)-3-(4-Cyano-3-ethoxyphenoxy)-2,2,4,4-tetramethylcyclobutyl)-4-(4-((4-(4-(2,4-dioxotetrahydropyrimidin-1(2H)-yl)-1H-indazol-1-yl)piperidin-1-yl)methyl)piperidin-1-yl)-3-fluorobenzamide]
Cc1ccc2c(O[C@H]3C(C)(C)[C@H](NC(=O)c4ccc(N5CCC(CN6CCC(n7ncc8c(N9CCC(=O)NC9=O)cccc87)CC6)CC5)c(F)c4)C3(C)C)ccc(C#N)c2n1 [Example 7, N-((1r,3r)-3-((8-cyano-2-methylquinolin-5-yl)oxy)-2,2,4,4-tetramethylcyclobutyl)-4-(4-((4-(4-(2,4-dioxotetrahydropyrimidin-1(2H)-yl)-1H-indazol-1-yl)piperidin-1-yl)methyl)piperidin-1-yl)-3-fluorobenzamide]
CC1(C)[C@H](NC(=O)c2ccc(N3CCC(CN4CCC(n5ncc6c(N7CCC(=O)NC7=O)cccc65)CC4)CC3)c(F)c2)C(C)(C)[C@H]1Oc1ccc(C#N)c2c1CCO2 [Example 9, N-((1r,3r)-3-((7-Cyano-2,3-dihydrobenzofuran-4-yl)oxy)-2,2,4,4-tetramethylcyclobutyl)-4-(4-((4-(4-(2,4-dioxotetrahydropyrimidin-1(2H)-yl)-1H-indazol-1-yl)piperidin-1-yl)methyl)piperidin-1-yl)-3-fluorobenzamide]
CC1(C)[C@H](NC(=O)c2ccc(N3CCC(CN4CC[C@H](n5ncc6c(N7CCC(=O)NC7=O)cccc65)C4)CC3)c(F)c2)C(C)(C)[C@H]1Oc1ccc(C#N)c(Cl)c1 [Example 10, N-((1r,3r)-3-(3-Chloro-4-cyanophenoxy)-2,2,4,4-tetramethylcyclobutyl)-4-(4-(((S)-3-(4-(2,4-dioxotetrahydropyrimidin-1(2H)-yl)-1H-indazol-1-yl)pyrrolidin-1-yl)methyl)piperidin-1-yl)-3-fluorobenzamide]
CC1(C)[C@H](NC(=O)c2ccc(N3CCC(CN4CCC(n5ncc6c(N7CCC(=O)NC7=O)cc(F)cc65)CC4)CC3)c(F)c2)C(C)(C)[C@H]1Oc1ccc(C#N)c(Cl)c1 [Example 11, N-((1r,3r)-3-(3-Chloro-4-cyanophenoxy)-2,2,4,4-tetramethylcyclobutyl)-4-(4-((4-(4-(2,4-dioxotetrahydropyrimidin-1(2H)-yl)-6-fluoro-1H-indazol-1-yl)piperidin-1-yl)methyl)piperidin-1-yl)-3-fluorobenzamide]
CC1(C)[C@H](NC(=O)c2ccc(N3CCC(CN4CCC(n5ccc6c(N7CCC(=O)NC7=O)c(F)ccc65)CC4)CC3)c(F)c2)C(C)(C)[C@H]1Oc1ccc(C#N)c(Cl)c1 [Example 12, N-((1r,3r)-3-(3-Chloro-4-cyanophenoxy)-2,2,4,4-tetramethylcyclobutyl)-4-(4-((4-(4-(2,4-dioxotetrahydropyrimidin-1(2H)-yl)-5-fluoro-1H-indol-1-yl)piperidin-1-yl)methyl)piperidin-1-yl)-3-fluorobenzamide]
CC1(C)[C@H](NC(=O)c2ccc(N3CCC(CN4CC[C@H](n5ncc6c(N7CCC(=O)NC7=O)cccc65)[C@H](F)C4)CC3)c(F)c2)C(C)(C)[C@H]1Oc1ccc(C#N)c(Cl)c1 [Example 14, N-((1r,3r)-3-(3-Chloro-4-cyanophenoxy)-2,2,4,4-tetramethylcyclobutyl)-4-(4-(((3R,4S)-4-(4-(2,4-dioxotetrahydropyrimidin-1(2H)-yl)-1H-indazol-1-yl)-3-fluoropiperidin-1-yl)methyl)piperidin-1-yl)-3-fluorobenzamide]
COc1cc(O[C@H]2C(C)(C)[C@H](NC(=O)c3ccc(N4CCC(CN5CCC(n6ncc7c(N8CCC(=O)NC8=O)cccc76)CC5)CC4)c(F)c3)C2(C)C)ccc1C#N [Example 21, N-((1r,3r)-3-(4-Cyano-3-methoxyphenoxy)-2,2,4,4-tetramethylcyclobutyl)-4-(4-((4-(4-(2,4-dioxotetrahydropyrimidin-1(2H)-yl)-1H-indazol-1-yl)piperidin-1-yl)methyl)piperidin-1-yl)-3-fluorobenzamide]
COc1cc(O[C@H]2C(C)(C)[C@H](NC(=O)c3ccc(N4CCC(CN5CCC(n6ccc7c(N8CCC(=O)NC8=O)cccc76)CC5)CC4)c(F)c3)C2(C)C)ccc1C#N [Example 22, N-((1r,3r)-3-(4-Cyano-3-methoxyphenoxy)-2,2,4,4-tetramethylcyclobutyl)-4-(4-((4-(4-(2,4-dioxotetrahydropyrimidin-1(2H)-yl)-1H-indol-1-yl)piperidin-1-yl)methyl)piperidin-1-yl)-3-fluorobenzamide]
COc1cc(O[C@H]2C(C)(C)[C@H](NC(=O)c3ccc(N4CCC(CN5CCC(n6ccc7c(N8CCC(=O)NC8=O)c(F)ccc76)CC5)CC4)c(F)c3)C2(C)C)ccc1C#N [Example 23, N-((1r,3r)-3-(4-Cyano-3-methoxyphenoxy)-2,2,4,4-tetramethylcyclobutyl)-4-(4-((4-(4-(2,4-dioxotetrahydropyrimidin-1(2H)-yl)-5-fluoro-1H-indol-1-yl)piperidin-1-yl)methyl)piperidin-1-yl)-3-fluorobenzamide]
COc1cc(O[C@H]2C(C)(C)[C@H](NC(=O)c3ccc(N4CCC(CN5CCC(n6ncc7c(N8CCC(=O)NC8=O)cc(F)cc76)CC5)CC4)c(F)c3)C2(C)C)ccc1C#N [Example 24, N-((1r,3r)-3-(4-Cyano-3-methoxyphenoxy)-2,2,4,4-tetramethylcyclobutyl)-4-(4-((4-(4-(2,4-dioxotetrahydropyrimidin-1(2H)-yl)-6-fluoro-1H-indazol-1-yl)piperidin-1-yl)methyl)piperidin-1-yl)-3-fluorobenzamide]
